Laboratory results from the CheMixHub drug solubility set.

Assay: xn = mol fraction of the nth substance listed, in the solute-free solvent

FC(F)(F)c1cccnc1Cl + CN(C)C=O + CCCCO
solubility (g/100 g solution)
Details	263.15 K	268.15 K	273.15 K	278.15 K	283.15 K	288.15 K	293.15 K	298.15 K	303.15 K
x2 = 0.2885	31.3	36.7	42.1	48.9	55.3	61.7	68.1	74.6	81.4
x2 = 0.4479	37.6	43.2	48.7	55.3	61.5	67.7	73.7	79.9	85.9
x2 = 0.6438	43.1	48.9	54.2	61.1	67.5	73.7	79.7	85.6	90.9
x2 = 0.8281	50.8	56.5	61.9	68.2	74	79.6	85	90.4	95.1

N#CCNC(=O)c1cnccc1C(F)(F)F + CCOC(C)=O + CCO
solubility (g/100 g solution)
Details	283.15 K	288.15 K	293.15 K	298.15 K	303.15 K	308.15 K	313.15 K	318.15 K	323.15 K
x2 = 0.2	4.4	5.22	6.22	7.38	8.72	10.2	12	14	16.2
x2 = 0.4	5.66	6.57	7.58	8.78	10.1	11.6	13.2	15.2	17.2
x2 = 0.6	5.43	6.27	7.24	8.3	9.5	10.8	12.3	13.9	15.6
x2 = 0.8	4.38	5.03	5.77	6.59	7.53	8.56	9.69	10.9	12.3

Cl.N=C(N)NC(=N)N1CCOCC1 + O + CC(C)O
solubility (g/100 g solution)
Details	x2 = 0.1	x2 = 0.2	x2 = 0.3	x2 = 0.4	x2 = 0.5	x2 = 0.6	x2 = 0.7	x2 = 0.8	x2 = 0.9
283.15 K	0.441	0.892	2.04	4.24	8.16	13.2	19.8	25.8	35
293.15 K	0.499	1.2	2.75	5.73	10.6	15.4	23.9	30.8	37.5
303.15 K	0.607	1.51	3.56	7.55	13.8	20.6	29.6	36.8	44.3
313.15 K	0.831	1.73	4.8	9.86	17.4	23.7	34.9	42.9	50.8
323.15 K	1.11	2.09	5.83	12.6	21.2	30	39.1	45.7	55.9

Cc1c(Br)c(=O)n(C2CCCC2)c2nc(Cl)ncc12 + CCOC(C)=O + CCO
solubility (g/100 g solution)
Details	278.15 K	283.15 K	288.15 K	293.15 K	298.15 K	303.15 K	308.15 K	313.15 K	318.15 K	323.15 K
x2 = 0.1	0.181	0.219	0.26	0.312	0.368	0.429	0.506	0.589	0.684	0.79
x2 = 0.2	0.238	0.286	0.341	0.403	0.475	0.553	0.645	0.746	0.86	0.987
x2 = 0.3	0.297	0.353	0.418	0.491	0.574	0.668	0.775	0.892	1.02	1.17
x2 = 0.4	0.349	0.414	0.492	0.571	0.665	0.77	0.888	1.02	1.17	1.32
x2 = 0.5	0.396	0.467	0.548	0.639	0.742	0.856	0.984	1.13	1.28	1.45
x2 = 0.6	0.438	0.514	0.602	0.701	0.811	0.931	1.07	1.22	1.38	1.57
x2 = 0.7	0.478	0.56	0.652	0.756	0.873	1	1.15	1.3	1.48	1.67
x2 = 0.8	0.52	0.608	0.706	0.817	0.939	1.08	1.23	1.39	1.57	1.77
x2 = 0.9	0.571	0.665	0.77	0.888	1.02	1.16	1.32	1.5	1.69	1.9
